# Test results from PMC4831212 (The Biochemical journal, 2013).
# What was measured:
# Assay in all cases: FRET lipid mixing of SNARE liposomes
# Type in all cases: biochemical
# Conditions in all cases: 37°C; 10 µM polyphenol (as in Figure 2)
# [1] = biological target: T1, SNAP-23/Syn4/VAMP8 (Rattus norvegicus, UniProt O70377+Q08850+Q9WUF4)
# T1 sequence (O70377 1-210): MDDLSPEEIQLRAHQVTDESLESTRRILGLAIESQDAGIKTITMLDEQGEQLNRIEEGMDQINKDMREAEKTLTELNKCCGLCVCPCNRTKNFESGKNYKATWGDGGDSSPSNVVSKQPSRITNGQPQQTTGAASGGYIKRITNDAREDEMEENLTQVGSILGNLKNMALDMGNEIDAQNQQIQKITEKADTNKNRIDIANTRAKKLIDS
# T1 sequence (Q08850 1-298): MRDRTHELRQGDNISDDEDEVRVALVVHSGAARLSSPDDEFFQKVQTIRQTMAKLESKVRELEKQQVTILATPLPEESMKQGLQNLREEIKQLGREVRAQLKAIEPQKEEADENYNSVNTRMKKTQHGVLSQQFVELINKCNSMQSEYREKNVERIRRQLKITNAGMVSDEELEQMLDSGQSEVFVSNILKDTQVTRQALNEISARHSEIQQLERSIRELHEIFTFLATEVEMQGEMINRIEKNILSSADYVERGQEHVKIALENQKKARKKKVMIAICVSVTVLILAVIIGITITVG
# T1 sequence (Q9WUF4 1-100): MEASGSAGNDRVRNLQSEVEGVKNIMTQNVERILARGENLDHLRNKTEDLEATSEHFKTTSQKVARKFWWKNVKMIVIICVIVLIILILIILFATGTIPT
# [2] = biological target: T2, SNAP-23/Syn4/VAMP2 (Rattus norvegicus, UniProt O70377+P63045+Q08850)
# [3] = biological target: T2, SNAP-23/Syn4/VAMP2; remark: listed apart in the source
# T2 sequence (P63045 2-116, one chain of several): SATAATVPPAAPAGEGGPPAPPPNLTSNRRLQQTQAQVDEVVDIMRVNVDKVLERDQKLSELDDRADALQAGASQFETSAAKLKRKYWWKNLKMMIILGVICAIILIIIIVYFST
Compound,% inhibition [1],% inhibition [2],% inhibition [3]
"COc1cc2c(c(OC)c1OC)-c1c(cc3c(c1OC)OCO3)CC(C)C(C)C2 (centres unmarked) [GN, gomisin N]",–,–,these polyphenols robustly inhibited SNAP-23/Syn4/VAMP2- driven fusion
"C[C@@H]1O[C@@H](OC[C@H]2O[C@@H](Oc3c(-c4ccc(O)c(O)c4)oc4cc(O)cc(O)c4c3=O)[C@H](O)[C@@H](O)[C@@H]2O)[C@H](O)[C@H](O)[C@H]1O [RT, rutin]",–,–,"did not inhibit SNAP-23/Syn4/VAMP8- driven fusion, but did inhibit SNAP-23/Syn4/VAMP2-driven fusion"
"O=C(O)/C=C/c1ccccc1 [TC, trans-cinnamic acid]",–,–,these polyphenols robustly inhibited SNAP-23/Syn4/VAMP2- driven fusion

# Continued, in another order:
% inhibition [1],% inhibition [2],Compound,% inhibition [3]
~ 90%,~ 40%,"O=c1cc(-c2ccc(O)cc2)oc2cc(O)cc(O)c12 [AP, apigenin]",–
~ 60%,–,"Oc1cc(O)c2cc(O)c(-c3cc(O)c(O)c(O)c3)[o+]c2c1 [DL, delphinidin]",–
75-90%,75-90%,"O=c1c(O)c(-c2cc(O)c(O)c(O)c2)oc2cc(O)cc(O)c12 [MR, myricetin]",–
